# Measurements reported in publication PMC3445516 (PLoS ONE, 2012).
# Read-outs that look alike come from different tables or passages of the source.
# Legend:
# Assay in all cases: Ambit kinase profiling, competition binding
# [1] = target: T1, JNK1 (Homo sapiens, UniProt P45983); details: for % Competition: 10 µM
# T1 construct: purchased Ambit Biosciences (KINOMEscan)
# Procedure: (§1) Also included in the kinase profile are four isoforms of PKC (δ, ε, η, θ) and eight isoforms of CAMKs (CAMKIα, δ, γ; CAMKIIα, β, δ, γ; CAMK4).
# (§2) The global kinase profiling experiment was performed by Ambit Biosciences.
# [2] = target: T2, TAOK3 (Homo sapiens, UniProt Q9H2K8)
# T2 construct: purchased Ambit Biosciences (KINOMEscan)
# T2 sequence (Q9H2K8 1-898): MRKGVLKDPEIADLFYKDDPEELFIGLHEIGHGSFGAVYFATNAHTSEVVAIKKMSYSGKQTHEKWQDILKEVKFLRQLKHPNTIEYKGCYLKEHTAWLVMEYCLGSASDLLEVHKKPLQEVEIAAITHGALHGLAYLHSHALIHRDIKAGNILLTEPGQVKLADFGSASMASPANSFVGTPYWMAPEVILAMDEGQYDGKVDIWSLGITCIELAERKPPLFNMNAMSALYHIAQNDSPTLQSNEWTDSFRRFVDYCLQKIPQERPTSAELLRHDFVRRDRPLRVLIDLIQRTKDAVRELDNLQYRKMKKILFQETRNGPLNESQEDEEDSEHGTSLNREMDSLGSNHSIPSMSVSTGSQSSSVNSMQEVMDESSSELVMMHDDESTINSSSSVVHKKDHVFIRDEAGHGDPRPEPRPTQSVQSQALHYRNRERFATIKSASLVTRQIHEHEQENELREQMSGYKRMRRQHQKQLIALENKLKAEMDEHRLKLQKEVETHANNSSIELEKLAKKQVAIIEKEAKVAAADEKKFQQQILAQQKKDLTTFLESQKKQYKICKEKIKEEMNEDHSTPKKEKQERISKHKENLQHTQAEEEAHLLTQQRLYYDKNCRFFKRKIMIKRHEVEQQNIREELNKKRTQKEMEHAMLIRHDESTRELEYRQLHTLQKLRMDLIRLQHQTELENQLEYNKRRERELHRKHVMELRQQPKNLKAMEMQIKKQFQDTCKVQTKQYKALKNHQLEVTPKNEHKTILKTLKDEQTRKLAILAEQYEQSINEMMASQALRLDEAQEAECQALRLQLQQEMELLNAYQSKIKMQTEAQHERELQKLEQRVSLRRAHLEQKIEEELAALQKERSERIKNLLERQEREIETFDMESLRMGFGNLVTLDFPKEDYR
# Procedure: as §1, §2
# [3] = target: T3, TAOK1 (Homo sapiens, UniProt Q7L7X3)
# T3 construct: purchased Ambit Biosciences (KINOMEscan)
# T3 sequence (Q7L7X3 1-1001): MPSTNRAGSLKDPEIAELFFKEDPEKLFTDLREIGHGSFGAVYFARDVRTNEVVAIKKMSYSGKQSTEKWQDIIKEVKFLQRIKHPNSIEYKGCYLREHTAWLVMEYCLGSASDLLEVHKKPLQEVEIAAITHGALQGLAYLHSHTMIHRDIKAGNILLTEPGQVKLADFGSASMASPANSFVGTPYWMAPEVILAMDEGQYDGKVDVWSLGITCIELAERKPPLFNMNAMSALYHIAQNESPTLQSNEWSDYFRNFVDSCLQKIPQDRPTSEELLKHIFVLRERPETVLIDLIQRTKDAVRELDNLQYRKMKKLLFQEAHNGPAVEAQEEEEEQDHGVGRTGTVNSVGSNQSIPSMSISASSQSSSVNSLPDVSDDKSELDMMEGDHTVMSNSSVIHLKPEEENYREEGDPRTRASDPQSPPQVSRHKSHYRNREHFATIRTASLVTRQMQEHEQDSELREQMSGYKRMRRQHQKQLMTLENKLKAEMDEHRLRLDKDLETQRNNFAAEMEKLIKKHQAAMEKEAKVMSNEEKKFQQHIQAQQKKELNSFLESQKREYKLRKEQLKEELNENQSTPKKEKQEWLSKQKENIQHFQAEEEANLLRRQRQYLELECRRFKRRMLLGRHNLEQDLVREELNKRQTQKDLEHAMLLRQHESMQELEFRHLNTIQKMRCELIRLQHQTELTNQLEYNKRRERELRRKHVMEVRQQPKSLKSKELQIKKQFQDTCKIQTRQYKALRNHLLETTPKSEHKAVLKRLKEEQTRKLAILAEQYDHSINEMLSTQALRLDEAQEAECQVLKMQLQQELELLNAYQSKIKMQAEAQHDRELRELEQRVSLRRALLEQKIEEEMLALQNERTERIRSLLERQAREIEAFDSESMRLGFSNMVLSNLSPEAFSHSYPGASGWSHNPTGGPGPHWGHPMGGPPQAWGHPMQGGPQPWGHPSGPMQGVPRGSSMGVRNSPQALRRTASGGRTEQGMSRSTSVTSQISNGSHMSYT
# Procedure: as §1, §2
# [4] = target: T4, ERK3 (Homo sapiens, UniProt Q16659)
# T4 construct: purchased Ambit Biosciences (KINOMEscan)
# T4 sequence (Q16659 whole entry): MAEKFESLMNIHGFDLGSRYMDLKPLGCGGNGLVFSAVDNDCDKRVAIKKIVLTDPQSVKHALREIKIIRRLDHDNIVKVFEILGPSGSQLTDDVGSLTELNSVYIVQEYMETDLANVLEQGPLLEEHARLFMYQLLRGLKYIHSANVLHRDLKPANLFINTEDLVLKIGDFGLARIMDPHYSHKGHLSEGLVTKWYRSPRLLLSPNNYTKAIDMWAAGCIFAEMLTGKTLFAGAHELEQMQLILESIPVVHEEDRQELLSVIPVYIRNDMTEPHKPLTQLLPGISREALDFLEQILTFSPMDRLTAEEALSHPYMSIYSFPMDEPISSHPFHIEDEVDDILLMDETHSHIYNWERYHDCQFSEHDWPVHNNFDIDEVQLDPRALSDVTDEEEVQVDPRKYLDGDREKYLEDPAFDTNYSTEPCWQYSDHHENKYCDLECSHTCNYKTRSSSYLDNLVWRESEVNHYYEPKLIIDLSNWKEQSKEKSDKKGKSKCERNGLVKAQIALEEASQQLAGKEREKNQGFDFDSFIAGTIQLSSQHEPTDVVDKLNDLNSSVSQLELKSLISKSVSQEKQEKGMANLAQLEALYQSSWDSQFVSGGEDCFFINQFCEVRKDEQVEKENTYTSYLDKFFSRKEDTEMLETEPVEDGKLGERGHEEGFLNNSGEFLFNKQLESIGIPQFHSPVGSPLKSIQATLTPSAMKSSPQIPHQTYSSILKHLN
# Procedure: as §1, §2
# [5] = target: T5, TTK (Homo sapiens, UniProt P33981)
# T5 construct: purchased Ambit Biosciences (KINOMEscan)
# T5 sequence (P33981 1-857): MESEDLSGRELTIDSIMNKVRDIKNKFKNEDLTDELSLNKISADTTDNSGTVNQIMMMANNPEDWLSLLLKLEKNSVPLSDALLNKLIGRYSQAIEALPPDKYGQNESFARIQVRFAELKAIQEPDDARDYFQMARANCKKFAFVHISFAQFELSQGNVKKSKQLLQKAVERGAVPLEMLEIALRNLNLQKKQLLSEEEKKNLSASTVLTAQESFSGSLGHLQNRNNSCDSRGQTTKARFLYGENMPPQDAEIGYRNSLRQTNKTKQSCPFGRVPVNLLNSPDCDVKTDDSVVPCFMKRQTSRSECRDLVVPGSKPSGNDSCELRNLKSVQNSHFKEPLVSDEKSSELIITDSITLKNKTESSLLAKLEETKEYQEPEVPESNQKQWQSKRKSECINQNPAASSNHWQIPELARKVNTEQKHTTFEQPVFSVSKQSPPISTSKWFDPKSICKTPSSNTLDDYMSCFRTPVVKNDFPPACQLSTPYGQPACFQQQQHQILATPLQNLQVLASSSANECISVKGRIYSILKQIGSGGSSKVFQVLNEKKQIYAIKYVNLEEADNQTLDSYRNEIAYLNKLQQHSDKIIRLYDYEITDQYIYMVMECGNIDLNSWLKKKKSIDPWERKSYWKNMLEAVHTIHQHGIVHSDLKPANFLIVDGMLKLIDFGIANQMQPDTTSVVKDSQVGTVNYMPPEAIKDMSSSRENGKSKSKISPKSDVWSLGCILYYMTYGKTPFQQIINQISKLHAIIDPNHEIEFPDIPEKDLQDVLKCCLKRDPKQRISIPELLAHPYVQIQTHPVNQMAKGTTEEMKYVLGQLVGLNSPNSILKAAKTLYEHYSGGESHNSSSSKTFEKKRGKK
# Procedure: as §1, §2
# T1 sequence (P45983 whole entry): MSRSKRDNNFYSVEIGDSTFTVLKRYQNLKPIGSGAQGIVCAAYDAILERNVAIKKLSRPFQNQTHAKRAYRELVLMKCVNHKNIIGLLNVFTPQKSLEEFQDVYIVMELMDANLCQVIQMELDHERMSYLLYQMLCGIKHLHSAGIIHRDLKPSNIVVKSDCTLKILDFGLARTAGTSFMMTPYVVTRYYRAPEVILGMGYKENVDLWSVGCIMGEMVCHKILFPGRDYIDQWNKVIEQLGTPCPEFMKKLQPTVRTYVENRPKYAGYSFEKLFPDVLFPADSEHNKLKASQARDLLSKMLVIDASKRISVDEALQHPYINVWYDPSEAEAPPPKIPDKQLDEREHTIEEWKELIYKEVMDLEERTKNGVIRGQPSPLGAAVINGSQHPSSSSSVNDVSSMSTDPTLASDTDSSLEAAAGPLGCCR
"inhibition at 10 µM ([2]; TAOK3, 10 µM, read-out: % Competition)","inhibition at 10 µM ([3]; TAOK1, 10 µM, read-out: % Competition)","inhibition at 10 µM ([4]; ERK3, 10 µM, read-out: % Competition)","inhibition at 10 µM ([5]; TTK, 10 µM, read-out: % Competition)",Percent Competition ([1]; compound concentration 10 uM),"inhibition at 10 µM ([2]; TAOK3, compound concentration 10 uM, read-out: Percent Competition)","inhibition at 10 µM ([3]; TAOK1, compound concentration 10 uM, read-out: Percent Competition)","inhibition at 10 µM ([4]; ERK3, compound concentration 10 uM, read-out: Percent Competition)","inhibition at 10 µM ([5]; TTK, compound concentration 10 uM, read-out: Percent Competition)",Compound,% Competition [1],inhibition at 10 µM ([2]; read-out: % Competition),inhibition at 10 µM ([3]; read-out: % Competition),inhibition at 10 µM ([4]; read-out: % Competition),inhibition at 10 µM ([5]; read-out: % Competition)
80%,99%,98%,88%,–,–,–,–,–,Fc1ccc(-c2c(-c3ccncc3)[nH]c3nccnc23)cc1 [Compound 122],100%,–,–,–,–
–,–,–,–,–,–,–,–,–,CC(O)CNc1cc(-c2[nH]c3cccnc3c2-c2ccc(F)cc2)ccn1 (stereo not drawn) [Compound 140],100%,< 50%,67%,< 50%,90%
–,–,–,–,100%,80%,99%,98%,88%,Fc1ccc(-c2c(-c3ccncc3)[nH]c3nccnc23)cc1 [RO1155697-000-005],–,–,–,–,–
